Data on 15 compounds can be found in ChEMBL document CHEMBL3217436, “Synthesis of new chromeno-annulated cis-fused pyrano[3,4-c]pyran derivatives via domino Knoevenagelhetero-DielsAlder reactions and their biological evaluation towards antiproliferative activity” (Medchemcomm, 2012).

Test [1] relates to SK-N-SH. Briefly: Antiproliferative activity against human SK-N-SH cells after 48 hrs by MTT assay. It is filed as functional, cell-based. A general note: Tetrazolium dyes change colour on reduction, which living cells bring about.
Test [2] deals with MDA-MB-231. Briefly: Antiproliferative activity against human MDA-MB-231 cells after 48 hrs by MTT assay. It is filed as functional, cell-based. The settings on record: MDA-MB-231, 48 h.
The subject of test [3] is MRC5. The test can be described thus: Antiproliferative activity against human MRC5 cells after 48 hrs by MTT assay. To be noted: MRC5, 48 h. In kind it is cell-based.
Test [4] concerns A549. The test can be described thus: Antiproliferative activity against human A549 cells after 48 hrs by MTT assay. In kind it is functional, cell-based. The settings on record: A549, 48 h.

Take `Cc1oc2c3c(ccc2c(=O)c1C)OC[C@H]1[C@@H]3c2c(c3ccccc3oc2=O)OC1(C)C`: the IC50 (in general, the midpoint of a concentration-inhibition curve) in test [1] was 1.05 µM; in test [2], over 100 µM; in test [3], 0.6 µM; in test [4] it was 0.1 µM.

Regarding `Cc1oc2c3c(ccc2c(=O)c1C)OC[C@H]1[C@@H]3c2c(n(C)c(=O)n(C)c2=O)OC1(C)C`, the IC50 was 1.06 µM in test [1], over 100 µM in test [2], over 100 µM in test [3] and 0.1 µM in test [4].

As to `Cc1oc2c3c(ccc2c(=O)c1-c1ccccc1)OC[C@H]1[C@@H]3c2c(n(C)c(=O)n(C)c2=O)OC1(C)C`, the IC50 in test [1] was 10.5 µM; in test [2], over 100 µM; in test [3] it was over 100 µM; in test [4] it was over 100 µM.

For the compound `Cc1oc2c3c(ccc2c(=O)c1C)OC[C@H]1[C@@H]3C2=C(CCCC2=O)OC1(C)C`, the IC50 in test [1], in test [2], in test [3] and in test [4] was over 100 µM each time.

As for `Cc1coc2c3c(ccc2c1=O)OC[C@H]1[C@@H]3C2=C(CCCC2=O)OC1(C)C`, the IC50 in test [1], in test [2], in test [3] and in test [4] was over 100 µM each time.

Turning to `Cc1oc2c3c(ccc2c(=O)c1-c1ccccc1)OC[C@H]1[C@@H]3C2=C(CCCC2=O)OC1(C)C`, the IC50 in test [1], in test [2], in test [3] and in test [4] was over 100 µM each time.

For the compound `Cc1oc2c3c(ccc2c(=O)c1C)OC[C@H]1[C@@H]3C2=C(CC(C)(C)CC2=O)OC1(C)C`, the IC50 in test [1], in test [2], in test [3] and in test [4] was over 100 µM in each case.

Consider `Cc1coc2c3c(ccc2c1=O)OC[C@H]1[C@@H]3C2=C(CC(C)(C)CC2=O)OC1(C)C`, for which the IC50 in test [1], in test [2], in test [3] and in test [4] was over 100 µM each time.

For the compound `Cc1oc2c3c(ccc2c(=O)c1-c1ccccc1)OC[C@H]1[C@@H]3C2=C(CC(C)(C)CC2=O)OC1(C)C`, the 50% inhibitory concentration (IC50) in test [1], in test [2], in test [3] and in test [4] was over 100 µM throughout.

Consider `Cc1oc2c3c(ccc2c(=O)c1C)OC[C@H]1[C@@H]3CC(=O)OC1(C)C`, for which the IC50 is over 100 µM in test [1], over 100 µM in test [2], 0.6 µM in test [3] and 0.09 µM in test [4].

`Cc1coc2c3c(ccc2c1=O)OC[C@H]1[C@@H]3CC(=O)OC1(C)C`: the IC50 is over 100 µM in test [1], over 100 µM in test [2], over 100 µM in test [3] and 11.2 µM in test [4].

Regarding `CC(=O)C1=C(C)OC(C)(C)[C@H]2COc3ccc4c(=O)c(C)c(C)oc4c3[C@@H]12`, the IC50 in test [1] is 10.7 µM; in test [2] it was over 100 µM; in test [3], over 100 µM; in test [4] it was over 100 µM.

On to `CCOC(=O)C1=C(C)OC(C)(C)[C@H]2COc3ccc4c(=O)c(C)c(C)oc4c3[C@@H]12`, for which the IC50 is 10.8 µM in test [1], over 100 µM in test [2], 0.9 µM in test [3] and 10.9 µM in test [4].

For `Cc1nn(-c2ccccc2)c2c1[C@@H]1c3c(ccc4c(=O)c(C)c(C)oc34)OC[C@@H]1C(C)(C)O2`, the IC50 in test [1] is 10.6 µM; in test [2], over 100 µM; in test [3] it was over 100 µM; in test [4] it was over 100 µM.

Take `Cc1nn(-c2ccccc2)c2c1[C@@H]1c3c(ccc4c(=O)c(-c5ccccc5)c(C)oc34)OC[C@@H]1C(C)(C)O2`: the IC50 in test [1], in test [2], in test [3] and in test [4] was over 100 µM throughout.
